From ChEMBL document CHEMBL6071152, “Design, synthesis, and biological evaluation of oridonin derivatives as novel NLRP3 inflammasome inhibitors for the treatment of acute lung injury” (Eur J Med Chem, 2024)
The source made the active and inactive calls. No cut-off for these calls is given here.

Columns and labels:
[1] = biological target: NACHT, LRR and PYD domains-containing protein 3 (Mus musculus, UniProt Q8R4B8); experiment: Inhibition of NLRP3 inflammasome activation in ICR mouse BMDM assessed as inhibition of LPS/ATP-stimulated IL-1 beta production in cell supernatant treated for 3 hrs with LPS followed by incubation with compound for 1 hr and later stimulated with ATP for 0.5 hrs by ELISA; assay type: cell-based
[2] = Cytotoxicity against ICR mouse BMDM assessed as reduction in cell viability incubated for 24 hrs by CCK8 assay; assay type: toxicity, cell-based; settings: BMDM (bone marrow-derived macrophages)
Mus musculus [3] = experiment: Anti-inflammatory activity against LPS-stimulated acute lung injury C57BL/6 mouse model assessed as active animal at 5 mg/kg, ip treated for 3 days and on third day administered with LPS at 30 mins post-compound challenge; assay type: functional, organism-based; settings: time 3.0 day
Mus musculus [4] = experiment: (§1) Anti-inflammatory activity against LPS-stimulated acute lung injury C57BL/6 mouse model assessed as decrease in weight loss at 5 mg/kg, ip treated for 3 days and on third day administered with LPS at 30 mins post-compound challenge; assay type: functional, organism-based; settings: time 3.0 day
Mus musculus [5] = experiment: as §1, with “inflammatory cell infiltration in right lung” for “weight loss”, “challenge and measured after 12 hrs by Hematoxylin-Eosin staining analysis” for “challenge”; assay type: functional, organism-based; settings: time 3.5 day
Mus musculus [6] = experiment: as §1, with “alveolar dilation in right lung” for “weight loss”, “challenge and measured after 12 hrs by Hematoxylin-Eosin staining analysis” for “challenge”; assay type: functional, organism-based; settings: time 3.5 day
Mus musculus [7] = experiment: as §1, with “thickening of alveolar septa in right lung” for “weight loss”, “challenge and measured after 12 hrs by Hematoxylin-Eosin staining analysis” for “challenge”; assay type: functional, organism-based; settings: time 3.5 day
Mus musculus [8] = experiment: as §1, with “partial alveolar congestion in right lung” for “weight loss”, “challenge and measured after 12 hrs by Hematoxylin-Eosin staining analysis” for “challenge”; assay type: functional, organism-based; settings: time 3.5 day
Mus musculus [9] = experiment: Anti-inflammatory activity against LPS-stimulated acute lung injury C57BL/6 mouse model assessed as decrease in weight loss at 1 mg/kg, ip treated for 3 days and on third day administered with LPS at 30 mins post-compound challenge; assay type: functional, organism-based; settings: time 3.0 day

Chain of NACHT, LRR and PYD domains-containing protein 3 (Q8R4B8 whole entry, the tested form may be a part): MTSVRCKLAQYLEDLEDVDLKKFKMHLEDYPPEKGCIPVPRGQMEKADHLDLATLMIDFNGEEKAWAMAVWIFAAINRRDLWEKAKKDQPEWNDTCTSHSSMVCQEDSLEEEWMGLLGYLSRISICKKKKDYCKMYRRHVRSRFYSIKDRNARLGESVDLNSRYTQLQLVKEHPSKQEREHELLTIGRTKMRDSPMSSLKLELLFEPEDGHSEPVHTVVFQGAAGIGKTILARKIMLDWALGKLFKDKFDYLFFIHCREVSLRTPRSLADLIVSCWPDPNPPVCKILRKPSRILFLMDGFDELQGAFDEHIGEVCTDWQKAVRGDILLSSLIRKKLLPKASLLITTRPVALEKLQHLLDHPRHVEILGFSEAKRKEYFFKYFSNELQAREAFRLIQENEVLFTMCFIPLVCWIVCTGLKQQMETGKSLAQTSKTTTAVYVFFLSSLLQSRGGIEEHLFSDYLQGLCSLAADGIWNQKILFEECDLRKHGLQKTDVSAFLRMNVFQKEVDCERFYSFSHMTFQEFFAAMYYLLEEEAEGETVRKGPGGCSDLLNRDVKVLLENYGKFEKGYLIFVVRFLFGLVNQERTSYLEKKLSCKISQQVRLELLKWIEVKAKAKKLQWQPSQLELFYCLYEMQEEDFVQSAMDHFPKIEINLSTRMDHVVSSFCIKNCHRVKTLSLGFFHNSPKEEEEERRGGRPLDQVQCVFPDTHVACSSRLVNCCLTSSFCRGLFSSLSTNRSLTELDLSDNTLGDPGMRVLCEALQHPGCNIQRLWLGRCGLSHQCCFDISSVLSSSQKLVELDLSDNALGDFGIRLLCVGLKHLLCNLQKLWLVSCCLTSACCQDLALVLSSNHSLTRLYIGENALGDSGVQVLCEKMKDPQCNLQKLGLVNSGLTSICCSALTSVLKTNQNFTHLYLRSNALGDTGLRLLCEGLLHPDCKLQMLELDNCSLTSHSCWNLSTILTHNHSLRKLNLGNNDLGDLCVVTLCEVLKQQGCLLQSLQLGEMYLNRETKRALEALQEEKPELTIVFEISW

## C=C1C(=O)[C@]23[C@H](OC(=O)Nc4ccccn4)[C@H]1CC[C@H]2[C@]12C=CCC(C)(C)[C@H]1[C@H](O)[C@@]3(O)OC2
[1]
  IC50: 96.1 nM
[2]
  IC50 at 24 h: > 10000 nM

## CC(C)(O)c1coc(S(=O)(=O)NC(=O)Nc2c3c(cc4c2CCC4)CCC3)c1
[2]
  IC50 at 24 h: > 10000 nM

## C=C1C(=O)[C@]23[C@H](OC(=O)Nc4ccccc4Cl)[C@H]1CC[C@H]2[C@]12C=CCC(C)(C)[C@H]1[C@H](O)[C@@]3(O)OC2
[1]
  IC50: 88.6 nM
[2]
  IC50 at 24 h: > 10000 nM

## C=C1C(=O)[C@]23[C@H](OC(=O)Nc4cccc5ccccc45)[C@H]1CC[C@H]2[C@]12C=CCC(C)(C)[C@H]1[C@H](O)[C@@]3(O)OC2
[1]
  IC50: 74.9 nM
[2]
  IC50 at 24 h: > 10000 nM

## C=C1C(=O)[C@]23[C@H](OC(=O)NC4CCCCC4)[C@H]1CC[C@H]2[C@]12C=CCC(C)(C)[C@H]1[C@H](O)[C@@]3(O)OC2
[1]
  IC50: 135 nM
[2]
  IC50 at 24 h: > 10000 nM

## C=C1C(=O)[C@]23[C@H](OC(=O)NC4CCCC4)[C@H]1CC[C@H]2[C@]12C=CCC(C)(C)[C@H]1[C@H](O)[C@@]3(O)OC2
[1]
  IC50: 178 nM
[2]
  IC50 at 24 h: > 10000 nM

## C[C@@H]1C[C@H]2[C@@H]3CCC4=CC(=O)C=C[C@]4(C)[C@@]3(F)[C@@H](O)C[C@]2(C)[C@@]1(O)C(=O)CO
Mus musculus [3]
  Activity: Active
Mus musculus [4]
  Activity: Active
Mus musculus [5]
  Activity: Active
Mus musculus [6]
  Activity: Active
Mus musculus [7]
  Activity: Active
Mus musculus [8]
  Activity: Active

## C=C1C(=O)[C@]23[C@H](O)[C@H]1CC[C@H]2[C@]12C=CCC(C)(C)[C@H]1[C@H](O)[C@@]3(O)OC2
[1]
  IC50: 131 nM
[2]
  IC50 at 24 h: > 10000 nM

## C=C1C(=O)[C@]23[C@H](O)[C@H]1CC[C@H]2[C@@]12CO[C@]3(O)[C@@H](O)[C@@H]1C(C)(C)CC[C@@H]2O [ORIDONIN]
[1]
  IC50: 1240 nM
[2]
  IC50 at 24 h: > 10000 nM
Mus musculus [9]
  Activity: Active

## C=C1C(=O)[C@]23[C@H](OC(=O)Nc4cccc(Cl)c4)[C@H]1CC[C@H]2[C@]12C=CCC(C)(C)[C@H]1[C@H](O)[C@@]3(O)OC2
[1]
  IC50: 80.8 nM
[2]
  IC50 at 24 h: > 10000 nM
